# Values quoted from earlier work in PMC6270655, “Mixed Antimony(V) Complexes with Different Sugars to Modulate the Oral Bioavailability of Pentavalent Antimonial Drugs” (Molecules, 2014).
# Set-up: method as in PMID 22573856
structure (smiles),measurement,value
"CCCCCCCCCCCCCCCCOP(=O)([O-])OCC[N+](C)(C)C [miltefosine, hexadecylphosphocholine]",half-life,~ 150 h
